Results reported in PMC8020795 (Proceedings of the National Academy of Sciences of the …, 2021).

What was measured:
hERG (human K+ channel) = molecular target: T1, hERG (human K+ channel) (Homo sapiens, UniProt Q12809); assay: hERG patch-clamp assay (hERG-CHO, automated patch-clamp); format: cell-based
T1 construct: host or cells: CHO (hERG-CHO)
Description: page 16: Table: List of genes examined by real-time PCR and the primer sequences used. Genes Forward primers Reverse primers Slug [NT] Fn1 [NT] Cdh2 […] Foxc2 [NT] Zeb1 [NT] Zeb2 [NT] Twist1 [NT] Cdh1 [NT] Mta3 [NT] Cldn3 [NT] Cldn5 [NT] β-actin […] [NT] Off-target standard assays Methods employed in this study have been adapted from the scientific literature to maximize reliability and reproducibility. Reference standards were run as an integral part of each assay to ensure the validity of the results obtained. Radioligand binding Assays were performed under conditions described in the accompanying "Methods" section of this report by Eurofins Panlabs, Inc (Taipei, Taiwan, ROC). hERG patch-clamp assay BPRCX807 were tested in the hERG (hERG-CHO, automated patch-clamp) assay and determined at Eurofins Panlabs (Missouri, USA). The experiment was accepted in accordance with Eurofins validation Standard Operating Procedure. Selectivity Screening of various chemokine receptors The results were performed by Eurofins DiscoverX (Fremont, California, USA). The S15

orthotopic JHH-7 tumors = assay: Orthotopic JHH-7 HCC model; format: in vivo, nude mice; conditions: treatment alone, 15 mg/kg/d SC minipump 14 d
Method: (§1) In vivo hepatocellular carcinoma treatment studies […]
(§2) mouse PD-1 (200 µg/mouse; BioXcell, BE0146). The therapeutic efficacy and the changes in immune cells were analyzed after two weeks of treatment. The tumor volume was calculated with the following formula: volume = width × length × height/2. […]

orthotopic HCA-1 tumors = assay: Orthotopic HCA-1 HCC model; format: in vivo, C3H mice; conditions: treatment alone; for Effect on tumor growth: 15 mg/kg/d SC minipump 14 d
Method: as §1, §2
Hematoxylin and Eosin staining
Lung tissue was cut into small pieces and fixed in 4% PFA (in PBS) overnight before being embedded in paraffin wax. The sections were then stained with hematoxylin and eosin (H&E) and observed with an inverted microscope (IX83, Olympus, Japan).
HCA-1 tumor-bearing mice were anesthetized, perfused via intracardiac injection with PBS and then sacrificed. Tumor tissues were collected and harvested in enzyme-containing DMEM cell culture medium (1.5 mg/mL of collagenase type 1A and hyaluronidase; Sigma).
The tissues were cut and ground into smaller pieces and then digested for 1 h at 37 °C to form suspensions of single tumor cells. The suspensions were filtered through a 70-µm cell strainer (Corning, Manassas, VA), and the cells were then incubated with rat anti-mouse CD16/CD32 mAbs to block Fc receptors. After washing 3 times and resuspending in cold flow buffer (1% BSA, 0.1% NaN3 in PBS), the single-cell suspensions were incubated with monoclonal anti-mouse F4/80-PE (eBiosciences, San Diego, CA), 7-AAD, CD3e-APC, CD8a-PE-Cy7, CD45-FITC, CD4-PE (BD Biosciences, East Rutherford, NJ), CD86-APC-

[1] = Pharmacokinetics after SC administration; conditions: 6 mg/kg
Method: Pharmacokinetics and toxicological studies
Male C57BL/6 mice, each weighing 23.4–25.4 g, were quarantined for 1 week before drug treatment. Compounds dissolved in 100% saline were individually given to mice (n = 3) subcutaneously (6 mg/kg; nonfasted mice). Blood samples were collected via cardiac puncture at defined time points (0 (immediately before dosing), 0.03, 0.08, 0.25, 0.5, 1, 2, and 4 h after dosing) and then stored at −80 °C. The volume of the dosing solution given was 100 µL for each mouse. The plasma samples were analyzed by liquid chromatography– tandem mass spectrometry (LC–MS/MS), and the data were calculated by a standard noncompartmental method using the Kinetica software program (InnaPhase). […]

[2] = Metabolic stability in liver microsomes; format: in vitro ADME; conditions: mouse, rat, dog, and human
Description: Figure S4. The metabolic stabilities of BPRCX807 in liver microsomes. BPRCX807 is […]

[3] = SC, mice, n = 3
HCA-1 cells = assay: Western blot of phospho-ERK and phospho-AKT after CXCL12 stimulation; format: cell-based, murine
Method: (§3) Western blotting was conducted by following standard procedures. HCA-1 or JHH-7 cells (10^5 cells per well) were seeded in 12-well plates (Costar, IL), incubated for 12 h and […]
(§4) containing (100 ng/mL) serum-free medium. After 24 h, the cells were lysed in RIPA buffer on ice for 30 min, and samples were collected and loaded with 4× Laemmli Sample buffer (Bio-Rad, Hercules, CA). The samples were separated on a 10% SDS-PAGE gels and transferred to PVDF membranes. After blocking with skim milk for 1 h, the membranes were incubated at 4°C overnight with primary antibodies against p -AKT, AKT, p-ERK, ERK (Cell Signaling, Danvers, MA) or β-actin (Sigma-Aldrich, St. Louis, MO) before incubation with HRP-conjugated secondary antibodies (Antibodies Inc., Davis, CA) for 1 h. […]
(§5) Total RNA was extracted from HCA-1 cells using the RNeasy Mini Kit (Qiagen, CA, USA). cDNAs were synthesized using the High-Capicity cDNA Reverse Transcription Kit […]
(§6) Biosystems, CA, USA) on a QPCR System. The comparative threshold cycle method was used to calculate fold change in gene expression, which was normalized to β-actin as a […]

JHH-7 cells = assay: as above; format: cell-based, human
Method: as §3, §4, §5, §6

CXCR4 = CXCR4 (Homo sapiens, UniProt P61073); set-up: expressed in transfected cells; host or cells: HEK293T; conditions: screening hit; read-out: IC50 (binding affinity toward CXCR4 receptors); cited from earlier work
[4] = male, C57BL/6, mouse, in vivo, sc

T1 sequence (Q12809 whole entry): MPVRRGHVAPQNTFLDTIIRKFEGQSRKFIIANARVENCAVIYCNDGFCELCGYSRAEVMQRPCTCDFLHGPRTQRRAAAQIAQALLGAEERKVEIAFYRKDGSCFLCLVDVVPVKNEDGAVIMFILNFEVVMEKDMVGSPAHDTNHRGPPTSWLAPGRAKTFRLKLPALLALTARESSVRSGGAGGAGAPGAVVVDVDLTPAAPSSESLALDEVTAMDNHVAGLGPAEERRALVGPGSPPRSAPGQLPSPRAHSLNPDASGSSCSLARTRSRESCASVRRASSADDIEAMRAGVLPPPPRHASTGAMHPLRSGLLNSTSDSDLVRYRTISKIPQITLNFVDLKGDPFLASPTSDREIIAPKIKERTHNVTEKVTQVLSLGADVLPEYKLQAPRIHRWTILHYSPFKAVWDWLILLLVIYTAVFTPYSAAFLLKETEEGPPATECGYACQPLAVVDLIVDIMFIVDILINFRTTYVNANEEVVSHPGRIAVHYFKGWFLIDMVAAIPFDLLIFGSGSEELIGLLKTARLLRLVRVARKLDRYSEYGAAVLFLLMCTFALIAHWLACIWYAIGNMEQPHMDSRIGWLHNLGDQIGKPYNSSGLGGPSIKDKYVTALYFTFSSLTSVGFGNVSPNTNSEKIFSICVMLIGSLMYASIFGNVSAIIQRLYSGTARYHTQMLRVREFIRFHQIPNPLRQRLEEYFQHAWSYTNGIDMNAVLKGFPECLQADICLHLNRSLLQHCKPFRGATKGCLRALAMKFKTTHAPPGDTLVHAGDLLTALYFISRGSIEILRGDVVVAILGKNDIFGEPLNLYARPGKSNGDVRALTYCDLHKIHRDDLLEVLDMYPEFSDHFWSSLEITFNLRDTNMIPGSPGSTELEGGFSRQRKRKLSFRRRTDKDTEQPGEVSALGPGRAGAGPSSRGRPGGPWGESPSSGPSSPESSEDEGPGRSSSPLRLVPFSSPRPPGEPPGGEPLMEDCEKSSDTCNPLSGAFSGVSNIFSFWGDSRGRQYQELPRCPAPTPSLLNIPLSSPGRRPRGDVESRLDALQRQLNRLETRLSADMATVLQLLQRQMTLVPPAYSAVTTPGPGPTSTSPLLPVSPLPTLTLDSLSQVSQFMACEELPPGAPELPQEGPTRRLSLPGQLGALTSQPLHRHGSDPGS
Chain of CXCR4 (P61073 whole entry): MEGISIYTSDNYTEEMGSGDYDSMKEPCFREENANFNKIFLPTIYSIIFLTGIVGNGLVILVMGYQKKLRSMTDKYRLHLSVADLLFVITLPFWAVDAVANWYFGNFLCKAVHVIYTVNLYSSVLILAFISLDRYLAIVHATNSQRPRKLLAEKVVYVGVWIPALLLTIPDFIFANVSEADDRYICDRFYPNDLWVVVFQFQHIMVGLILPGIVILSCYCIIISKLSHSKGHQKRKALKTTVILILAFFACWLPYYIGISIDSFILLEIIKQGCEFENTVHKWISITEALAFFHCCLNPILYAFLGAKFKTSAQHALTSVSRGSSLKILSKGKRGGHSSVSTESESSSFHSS

For `c1cc(CN2CCCNCCNCCCNCC2)ccc1CN1CCCNCCNCCCNCC1` [AMD3100, reference compound], the IC50 (hERG (human K+ channel)) was over 100000 nM, the “Effect on tumor growth” value (orthotopic JHH-7 tumors) was “no significant effect on tumor growth” and the “Effect on tumor growth” value (orthotopic HCA-1 tumors) was “no significant effect on tumor growth”. The “Lung metastasis (number of lung nodules)” value (orthotopic HCA-1 tumors; day 24) was “reduced”, the “AUC0–4 h” value ([1]; SC, mice, n = 3) was 7,152 ± 135 ng/mL·h and the Cmax [1, 4] was 6200 ng/mL. The half-life [1, 4] was 1 h, the “Metabolic stability in liver microsomes” value [2] was “Stable” and the Maximum tolerated dose [3] was 15 mg/kg.
With `NCCCCN(Cc1nc2ccccc2[nH]1)[C@H]1CCCc2cccnc21` [AMD11070, reference compound] the “CXCL12-mediated cell signaling (phospho-ERK, phospho-AKT)” value (HCA-1 cells) was “moderately inhibited” and the “CXCL12-mediated cell signaling (phospho-ERK, phospho-AKT)” value (JHH-7 cells) was “moderately inhibited”.
With `Cc1cc(NC2CCN(C(=O)CCNCC(=O)O)CC2)nc(NCc2cn(CCCNCCCNC3CCCCC3)nn2)n1` [BPRCX714, reference compound] the “Effect on tumor growth” value (orthotopic JHH-7 tumors) was “no significant effect on tumor growth” and the “Effect on tumor growth” value (orthotopic HCA-1 tumors) was “no significant effect on tumor growth”.
For `CCN(CC)CCCC(C)Nc1cc(/C=C/c2ccc([N+](=O)[O-])cc2)nc2cc(OC)ccc12` (centres unmarked) [CSV18742], the IC50 (CXCR4) is listed as 2130 ± 110 nM.
With `CNC(=O)c1cc(Oc2ccc(NC(=O)Nc3ccc(Cl)c(C(F)(F)F)c3)cc2)ccn1` [sorafenib, reference compound] the “F4/80+ TAMs infiltration into tumor (flow cytometry)” value (orthotopic HCA-1 tumors) was “substantially increased”, the “Intratumoral mean vessel density (MVD, CD31+ staining)” value (orthotopic HCA-1 tumors; day 24) was “significantly decrease intratumoral MVD” and the “Lung metastasis (number of lung nodules)” value (orthotopic HCA-1 tumors; day 24) was “barely reduced”.
